Results reported in ChEMBL document CHEMBL1201862, “PubChem BioAssay data set” (2004).
Active and inactive are the calls of the source.

Key:
[1] = molecular target: CAAX prenyl protease 2 (Homo sapiens, UniProt Q9Y256); experiment: human Rce1 protease inhibitors, dose response, biochemical, yeast membranes, quenched-peptide fluorescence, cherry-pick (AID 588849)
[2] = molecular target: ATP-dependent molecular chaperone HSP82 (Candida albicans (strain WO-1) (Yeast), UniProt C4YTQ8); experiment: loss of DOC-induced GRE-beta-galactosidase reporter signal, dose response, Hsp90 inhibitor project, S. cerevisiae, luminescence (AID 2400); format: functional, cell-based;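 further: beta-galactosidase luminescence from glucocorticoid response element reporter as proxy for Hsp90 function; inhibitor potency where signal loss means Hsp90 inhibition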
[3] = C. albicans growth with fluconazole, confirmation, fluorescence, retest (AID 2467); format: functional, cell-based
[4] = NIH-3T3 fibroblast cytotoxicity, dose response, cytotoxicity control, cell-based, fluorescence, Alamar Blue, secondary assay (AID 2327); format: functional;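 further: NIH-3T3 mouse fibroblasts cultured with fluconazole at 8 µg/mL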
[5] = molecular target: Serine/threonine-protein phosphatase (Candida dubliniensis (strain CD36 / CBS 7987 / NCPF 3949 / NRRLY-17841) (Yeast), UniProt B9W6M3); experiment: calcineurin pathway inhibitors in yeast reporter, dose response, S. cerevisiae, CDRE-lacZ, luminescence, secondary (AID 2388); format: functional, cell-based;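 further: yeast reporter cells carrying a calcineurin-responsive lacZ construct stimulated with calcium chloride; luminescent beta-galactosidase reporter signal in whole cells rather than isolated phosphatase activity; potency for inhibition where a drop in reporter signal means calcineurin blockade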
[6] = Luminescence Cell-Based Dose Response HTS to Identify Activators of Luciferase Translation or Activity in H4-C Neuroglioblastoma Cells. [Related pubchem assays: 1829 (Project Summary), 1814 (Primary HTS)]; format: functional
[7] = Luminescence Cell-Based Dose Response HTS to Identify Inhibitors of Luciferase Translation or Activity in H4-C Neuroglioblastoma Cells. [Related pubchem assays: 1813 (Primary HTS), 1827 (Project Summary)]; format: functional
[8] = Luminescence Cell-Based Dose Response HTS to Identify Inhibitors of 5'UTR Stem-Loop Driven Prion Protein mRNA Translation in H4 Neuroglioblastoma Cells. [Related pubchem assays: 1827 (Project Summary), 1813 (Primary HTS)]; format: functional
[9] = inhibitors of SNCA 5'UTR-driven reporter translation, confirmation, H4 neuroglioma cells, luminescence (AID 1988); format: functional, cell-based
[10] = molecular target: Troponin, cardiac muscle (Homo sapiens, UniProt P19429+P45379+P63316); experiment: Fluorescence-based biochemical high throughput dose response assay for activators of the calcium sensitivity of cardiac Regulated Thin Filaments (RTF). [Related pubchem assays (depositor defined):AID493008, AID493018, AID504382, AID504383]; format: protein-complex assay
[11] = Luminescence Cell-Based Dose Confirmation HTS to Identify Inhibitors of 5'UTR Stem-Loop Driven Alpha-Synuclein mRNA Translation in H4 Neuroglioblastoma Cells. [Related pubchem assays: 1827 (Project Summary), 1813 (Primary HTS)]; format: functional
[12] = Luminescence Cell-Based Dose Retest to Confirm Activators of 5'UTR Stem-Loop Driven Alpha-Synuclein mRNA Translation in H4 Neuroglioblastoma Cells. [Related pubchem assays (depositor defined):AID1813, AID1829]; format: functional
[13] = inhibitors of firefly luciferase expression or activity, dose response, H4 neuroglioma cells, luminescence (AID 1990); format: functional, cell-based
[14] = molecular target: ORF 73 (Human herpesvirus 8, UniProt O40947); experiment: inhibitors of C-LANA binding to LBS DNA, dose response, biochemical, fluorescence polarization, cherry-picked samples (AID 504725); set-up: species or system Human gammaherpesvirus 8;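 further: fluorescence polarization of a labeled DNA duplex reporting LANA DNA binding; potency is for inhibitors that block LANA binding to the DNA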
[15] = Luminescence Cell-Based Dose HTS Response to Identify Inhibitors of 5'UTR Stem-Loop Driven Prion Protein mRNA Translation in H4-C Neuroglioblastoma Cells. [Related pubchem assays (depositor defined):AID1814, AID1827]; format: functional
[16] = test system: HeLa; experiment: HeLa cell cytotoxicity, dose response, cytotoxicity control, 24 h, cherry-picked samples (AID 504726); format: functional, cell-based; conditions: Homo sapiens;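 further: potency for cytotoxicity as loss of luminescence signal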
[17] = Luminescence Cell-Based Dose Response HTS to Identify Activators of 5'UTR Stem-Loop Driven Prion Protein mRNA Translation in H4-C Neuroglioblastoma Cells. [Related pubchem assays: 1829 (Project Summary), 1814 (Primary HTS)]; format: functional
[18] = molecular target: UDP-galactopyranose mutase (Mycobacterium tuberculosis, UniProt P9WIQ1); experiment: Inhibitors of Mycobacterium tuberculosis UDP-galactopyranose mutase (UGM) enzyme Measured in Biochemical System Using Plate Reader - 2105-02_Inhibitor_Dose_CherryPick_Activity. [Related pubchem assays (depositor defined):AID504439]
[19] = molecular target: Keap1/Nrf2 (Homo sapiens, UniProt Q14145); experiment: Keap1-Nrf2 protein-protein interaction inhibitors, dose response, biochemical, fluorescence polarization, cherry-picked samples (AID 588683)
[20] = molecular target: T1, Short transient receptor potential channel 4 (Mus musculus, UniProt Q9QUQ5); experiment: mouse TRPC4 channel activators, dose response, cell-based, HEK293 TRPC4/mu-opioid, Fluo-4 calcium (AID 434937); format: functional
T1 sequence (Q9QUQ5 whole entry): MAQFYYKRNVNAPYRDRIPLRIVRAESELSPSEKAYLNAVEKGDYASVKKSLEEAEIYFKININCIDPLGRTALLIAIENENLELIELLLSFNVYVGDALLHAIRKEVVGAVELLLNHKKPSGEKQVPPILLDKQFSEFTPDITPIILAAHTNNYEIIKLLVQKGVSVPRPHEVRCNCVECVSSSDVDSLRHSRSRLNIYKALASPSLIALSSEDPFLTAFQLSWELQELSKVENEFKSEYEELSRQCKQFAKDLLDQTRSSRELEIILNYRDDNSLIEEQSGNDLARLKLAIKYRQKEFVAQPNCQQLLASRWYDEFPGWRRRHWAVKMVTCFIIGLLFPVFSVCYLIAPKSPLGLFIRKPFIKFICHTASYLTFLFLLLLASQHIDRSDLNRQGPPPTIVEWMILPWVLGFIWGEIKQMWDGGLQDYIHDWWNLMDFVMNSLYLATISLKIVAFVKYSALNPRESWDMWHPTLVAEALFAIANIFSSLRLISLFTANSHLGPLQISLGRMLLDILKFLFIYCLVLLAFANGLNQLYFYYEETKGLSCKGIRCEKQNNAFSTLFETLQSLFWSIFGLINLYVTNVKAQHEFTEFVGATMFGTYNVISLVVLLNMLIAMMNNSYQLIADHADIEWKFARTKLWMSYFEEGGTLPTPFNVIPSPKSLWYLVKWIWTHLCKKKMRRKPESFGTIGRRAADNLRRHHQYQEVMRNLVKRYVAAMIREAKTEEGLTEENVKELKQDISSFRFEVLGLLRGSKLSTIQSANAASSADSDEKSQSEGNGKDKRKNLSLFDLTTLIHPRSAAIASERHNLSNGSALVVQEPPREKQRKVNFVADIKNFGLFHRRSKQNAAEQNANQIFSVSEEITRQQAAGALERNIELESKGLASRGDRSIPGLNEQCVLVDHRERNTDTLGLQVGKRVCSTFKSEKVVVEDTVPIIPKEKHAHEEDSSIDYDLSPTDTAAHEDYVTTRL

[21] = molecular target: Mu-type opioid receptor (Homo sapiens, UniProt P35372); experiment: (§1) Counterscreen for agonists of heterodimerization of the mu 1 (OPRM1) and delta 1 (OPRD1) opioid receptors: Luminescence-based cell-based high throughput dose response assay to identify agonists of OPRM1 homodimerization.; format: functional
[22] = molecular target: Delta-type opioid receptor (Homo sapiens, UniProt P41143); experiment: as §1, with “of OPRD1” for “of OPRM1”, “homodimerization. [Related pubchem assays (depositor defined):AID504326, AID504355, AID504692, AID504904, AID504905]” for “homodimerization.”; format: functional
[23] = molecular target: 5-hydroxytryptamine receptor 5A (Homo sapiens, UniProt P47898); experiment: Counterscreen for agonists of OPRM1-OPRD1 heterodimerization: luminescence-based cell-based high throughput dose response assay to identify agonists of 5-hydroxytryptamine (serotonin) 5A receptor (HTR5A). [Related pubchem assays (depositor defined):AID504326, AID504355, AID504692, AID504904, AID504905]; format: functional
[24] = molecular target: Voltage-gated inwardly rectifying potassium channel KCNH2 (Homo sapiens, UniProt Q12809);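 further: confirmatory quantitative high-throughput screen measuring inhibition of hERG channel activity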
Chain of Voltage-gated inwardly rectifying potassium channel KCNH2 (Q12809 whole entry): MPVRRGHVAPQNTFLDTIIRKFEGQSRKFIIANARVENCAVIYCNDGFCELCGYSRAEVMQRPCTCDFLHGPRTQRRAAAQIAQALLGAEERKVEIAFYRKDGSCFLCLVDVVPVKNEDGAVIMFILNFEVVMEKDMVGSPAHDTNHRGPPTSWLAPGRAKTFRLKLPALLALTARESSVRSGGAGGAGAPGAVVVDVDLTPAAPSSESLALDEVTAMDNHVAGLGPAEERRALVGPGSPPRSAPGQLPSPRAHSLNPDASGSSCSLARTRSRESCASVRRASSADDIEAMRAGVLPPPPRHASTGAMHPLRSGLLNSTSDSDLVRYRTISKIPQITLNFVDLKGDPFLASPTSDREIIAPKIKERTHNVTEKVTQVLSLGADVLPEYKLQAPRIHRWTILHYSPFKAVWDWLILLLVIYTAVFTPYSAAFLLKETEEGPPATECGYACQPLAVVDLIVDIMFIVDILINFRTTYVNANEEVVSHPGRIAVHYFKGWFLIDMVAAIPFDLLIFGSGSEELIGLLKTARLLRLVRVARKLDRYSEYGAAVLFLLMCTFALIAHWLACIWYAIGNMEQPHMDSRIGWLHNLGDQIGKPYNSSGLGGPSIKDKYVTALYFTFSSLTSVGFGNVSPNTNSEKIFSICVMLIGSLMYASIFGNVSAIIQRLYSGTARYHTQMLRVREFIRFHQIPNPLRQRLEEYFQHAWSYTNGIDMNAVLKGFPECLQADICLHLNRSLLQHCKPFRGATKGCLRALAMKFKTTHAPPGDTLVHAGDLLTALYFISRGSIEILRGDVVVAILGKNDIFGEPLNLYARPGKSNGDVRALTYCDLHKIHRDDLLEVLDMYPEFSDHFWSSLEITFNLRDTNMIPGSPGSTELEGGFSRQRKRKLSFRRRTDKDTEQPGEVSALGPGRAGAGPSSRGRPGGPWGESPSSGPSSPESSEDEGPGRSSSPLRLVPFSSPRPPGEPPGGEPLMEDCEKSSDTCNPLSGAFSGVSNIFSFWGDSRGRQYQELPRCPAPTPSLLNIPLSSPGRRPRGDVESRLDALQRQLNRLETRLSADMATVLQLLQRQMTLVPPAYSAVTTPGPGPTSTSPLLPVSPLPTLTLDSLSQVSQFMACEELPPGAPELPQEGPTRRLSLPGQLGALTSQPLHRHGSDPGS

Chain of 5-hydroxytryptamine receptor 5A (P47898 whole entry): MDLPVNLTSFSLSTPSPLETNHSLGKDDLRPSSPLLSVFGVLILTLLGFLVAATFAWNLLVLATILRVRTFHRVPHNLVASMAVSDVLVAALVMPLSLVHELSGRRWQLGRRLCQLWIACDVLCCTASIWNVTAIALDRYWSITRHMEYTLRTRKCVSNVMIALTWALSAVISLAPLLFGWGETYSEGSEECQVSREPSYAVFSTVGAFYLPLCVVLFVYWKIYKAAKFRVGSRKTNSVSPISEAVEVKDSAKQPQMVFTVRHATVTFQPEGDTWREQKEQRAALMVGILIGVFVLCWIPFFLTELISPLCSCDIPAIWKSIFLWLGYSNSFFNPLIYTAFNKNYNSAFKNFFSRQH
Chain of CAAX prenyl protease 2 (Q9Y256 whole entry): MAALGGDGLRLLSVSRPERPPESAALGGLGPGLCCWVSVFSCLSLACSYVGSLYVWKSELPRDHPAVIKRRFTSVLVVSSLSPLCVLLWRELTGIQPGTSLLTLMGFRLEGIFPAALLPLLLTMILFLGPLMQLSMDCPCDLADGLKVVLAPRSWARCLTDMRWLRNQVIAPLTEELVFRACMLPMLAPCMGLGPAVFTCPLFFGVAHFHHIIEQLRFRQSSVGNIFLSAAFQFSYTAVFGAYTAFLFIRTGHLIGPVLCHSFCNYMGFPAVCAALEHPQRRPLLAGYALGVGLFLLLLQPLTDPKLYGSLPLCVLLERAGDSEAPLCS
Chain of ORF 73 (O40947 whole entry): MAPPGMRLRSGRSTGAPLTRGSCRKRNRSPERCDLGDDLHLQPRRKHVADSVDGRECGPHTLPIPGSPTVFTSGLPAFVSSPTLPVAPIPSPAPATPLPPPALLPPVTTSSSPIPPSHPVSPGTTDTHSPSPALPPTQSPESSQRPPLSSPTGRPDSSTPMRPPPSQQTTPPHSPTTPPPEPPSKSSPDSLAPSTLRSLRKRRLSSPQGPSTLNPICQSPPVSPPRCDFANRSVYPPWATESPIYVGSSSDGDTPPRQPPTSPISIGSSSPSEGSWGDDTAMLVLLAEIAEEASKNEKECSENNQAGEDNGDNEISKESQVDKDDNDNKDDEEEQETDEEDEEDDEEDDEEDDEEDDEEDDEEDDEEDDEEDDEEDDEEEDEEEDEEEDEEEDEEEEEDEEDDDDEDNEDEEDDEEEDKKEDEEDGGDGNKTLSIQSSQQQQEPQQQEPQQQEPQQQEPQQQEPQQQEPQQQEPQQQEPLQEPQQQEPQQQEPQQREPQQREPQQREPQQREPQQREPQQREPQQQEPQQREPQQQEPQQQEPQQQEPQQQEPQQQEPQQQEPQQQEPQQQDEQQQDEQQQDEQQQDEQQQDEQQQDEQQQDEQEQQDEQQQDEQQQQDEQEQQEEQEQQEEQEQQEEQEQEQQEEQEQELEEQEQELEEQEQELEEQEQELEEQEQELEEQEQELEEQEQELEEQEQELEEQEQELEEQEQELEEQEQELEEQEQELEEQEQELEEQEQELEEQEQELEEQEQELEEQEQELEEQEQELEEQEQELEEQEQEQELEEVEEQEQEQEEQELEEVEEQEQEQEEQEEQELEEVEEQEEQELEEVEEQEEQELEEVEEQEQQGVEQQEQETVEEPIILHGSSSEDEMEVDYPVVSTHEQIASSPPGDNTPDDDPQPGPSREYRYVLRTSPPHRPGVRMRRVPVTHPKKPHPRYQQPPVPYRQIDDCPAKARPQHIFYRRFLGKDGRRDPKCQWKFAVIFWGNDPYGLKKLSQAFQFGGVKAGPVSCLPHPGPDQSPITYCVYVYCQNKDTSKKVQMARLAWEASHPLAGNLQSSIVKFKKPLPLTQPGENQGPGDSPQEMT
Chain of Keap1/Nrf2 (Q16236 whole entry): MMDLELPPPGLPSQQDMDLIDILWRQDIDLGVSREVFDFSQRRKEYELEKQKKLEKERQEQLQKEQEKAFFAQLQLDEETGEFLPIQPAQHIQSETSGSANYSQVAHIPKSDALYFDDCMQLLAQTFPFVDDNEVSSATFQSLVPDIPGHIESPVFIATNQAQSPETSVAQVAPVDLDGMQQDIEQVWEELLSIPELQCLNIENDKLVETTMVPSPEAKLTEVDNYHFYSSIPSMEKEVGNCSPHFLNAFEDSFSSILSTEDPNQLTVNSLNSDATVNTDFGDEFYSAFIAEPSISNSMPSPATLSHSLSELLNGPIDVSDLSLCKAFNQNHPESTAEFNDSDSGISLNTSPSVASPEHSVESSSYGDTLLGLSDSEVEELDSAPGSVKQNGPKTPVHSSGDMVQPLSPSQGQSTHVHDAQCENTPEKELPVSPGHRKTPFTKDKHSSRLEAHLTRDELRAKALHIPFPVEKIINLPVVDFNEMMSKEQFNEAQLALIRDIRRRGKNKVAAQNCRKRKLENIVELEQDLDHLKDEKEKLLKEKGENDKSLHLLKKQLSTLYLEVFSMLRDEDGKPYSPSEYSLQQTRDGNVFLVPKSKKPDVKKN
Chain of Keap1/Nrf2 (Q14145 whole entry): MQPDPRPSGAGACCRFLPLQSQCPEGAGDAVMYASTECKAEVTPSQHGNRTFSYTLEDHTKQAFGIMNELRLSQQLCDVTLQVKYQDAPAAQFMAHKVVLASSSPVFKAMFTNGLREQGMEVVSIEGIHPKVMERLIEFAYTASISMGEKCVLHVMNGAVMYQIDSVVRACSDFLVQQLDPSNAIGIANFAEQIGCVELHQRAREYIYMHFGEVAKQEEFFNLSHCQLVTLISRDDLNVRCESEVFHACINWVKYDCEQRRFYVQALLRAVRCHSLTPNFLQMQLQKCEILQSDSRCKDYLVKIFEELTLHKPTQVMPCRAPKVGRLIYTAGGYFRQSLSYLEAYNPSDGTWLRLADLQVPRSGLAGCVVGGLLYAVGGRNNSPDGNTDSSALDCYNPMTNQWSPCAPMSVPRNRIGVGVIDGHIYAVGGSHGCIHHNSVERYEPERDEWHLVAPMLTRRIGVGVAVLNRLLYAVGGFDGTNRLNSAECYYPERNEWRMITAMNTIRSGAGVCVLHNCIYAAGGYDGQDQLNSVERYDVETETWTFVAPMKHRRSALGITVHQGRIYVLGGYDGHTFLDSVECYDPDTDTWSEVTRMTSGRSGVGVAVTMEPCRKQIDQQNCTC
Chain of ATP-dependent molecular chaperone HSP82 (C4YTQ8 whole entry): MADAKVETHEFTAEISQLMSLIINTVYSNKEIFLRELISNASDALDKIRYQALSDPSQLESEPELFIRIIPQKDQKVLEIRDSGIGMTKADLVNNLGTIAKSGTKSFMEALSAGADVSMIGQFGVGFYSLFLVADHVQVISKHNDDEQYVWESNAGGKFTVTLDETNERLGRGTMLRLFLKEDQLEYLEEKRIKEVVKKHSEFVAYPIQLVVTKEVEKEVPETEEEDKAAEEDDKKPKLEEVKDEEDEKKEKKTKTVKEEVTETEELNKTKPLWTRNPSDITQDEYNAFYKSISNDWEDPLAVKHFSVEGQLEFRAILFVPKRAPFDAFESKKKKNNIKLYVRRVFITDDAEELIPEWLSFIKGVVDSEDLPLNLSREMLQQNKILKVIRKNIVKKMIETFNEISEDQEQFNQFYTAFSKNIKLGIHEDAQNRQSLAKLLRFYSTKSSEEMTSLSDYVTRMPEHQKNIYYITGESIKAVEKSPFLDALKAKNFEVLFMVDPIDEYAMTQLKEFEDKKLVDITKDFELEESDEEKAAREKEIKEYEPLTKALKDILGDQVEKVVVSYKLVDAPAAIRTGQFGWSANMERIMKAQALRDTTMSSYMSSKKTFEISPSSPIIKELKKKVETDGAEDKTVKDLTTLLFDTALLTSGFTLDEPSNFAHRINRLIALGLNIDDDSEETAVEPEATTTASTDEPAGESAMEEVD

CC(C)C(NC(=O)c1ccco1)C(=O)NCC(c1ccco1)N1CCCCC1 (centres undefined)
active: AC50 [1] 48.9 µM

COc1cc2c(cc1NC(=O)c1ccco1)CCCC2
inactive: EC50 [2] > 150 µM | EC50 [4] > 150 µM | EC50 [5] > 180 µM
active: EC50 [3] 841 nM

O=C(OCCN1C(=O)c2cccc3c(N4CCOCC4)ccc(c23)C1=O)c1ccc(Cl)cc1Cl
inconclusive: EC50 [6] 2.14 µM | EC50 [12] 6.15 µM | EC50 [13] 9.06 µM | EC50 [17] 722 nM
active: EC50 [7] 2.14 µM | EC50 [8] 12 µM | EC50 [9] 331 nM | EC50 [10] 1.11 µM | EC50 [11] 6.15 µM | AC50 [14] 15.5 µM | EC50 [15] 722 nM | AC50 [16] 16.5 µM | AC50 [18] 5.23 µM | AC50 [19] 7.59 µM

CCC(=O)OC1(c2cccc(C)c2)CC(C)N(C)CC1C (centres undefined)
active: EC50 [20] 335 nM
inactive: EC50 [21] > 92.5 µM | EC50 [22] > 92.5 µM | EC50 [23] > 92.5 µM

Cl.c1ccc2c(c1)[IH]c1ccccc1-2
35.4813 µM: Potency [24]
